Assay results as given in patent US5492905A, “1-bolizazepin-2,5-diones” (Zeneca Limited, priority 1992, dated 1996).
pIC50: −log10 of the molar value.

Experiments:
[1] = system: neuronal damage in the hippocampus; assay: gerbil ischemic model (bilateral carotid occlusion), neuroprotection; type: in vivo, Mongolian gerbils; details: dosed twice with 20 mg/kg body weight ip (e.g. 45 min before and 5 min after occlusion); 10 min occlusion; brains taken after 4 days
Description: When testing in vivo using the gerbil ischemic model, adult female Mongolian gerbils (50-70 g) are anesthetized with 2 to 3% halothane. The bilateral common carotid arteries at the neck are exposed and occluded with microaneurysm clips. After 10 min (unless specified), the clips are removed and the blood flow through the carotid arteries is restored and the skin is sutured. Test compounds are administered intraperitoneally both pre- and post-occlusion, for example 45 minutes before and 5 minutes after occlusion of the carotid arteries. Sham-operated animals are treated in the same manner except that the arteries are not clamped. Gross behavioral observations along with motor activity are recorded for 2 hr on the first (24 hr) day following the occlusion. After 4 days, subjects are sacrificed (decapitation), brains are removed, fixed, sectioned and stained with hematoxylin/eosin and cresyl violet.
The brain sections are rated for neuronal damage in the hippocampus using the following rating scale:
1=slight damage (up to 25%) - restricted CA1/subiculum border
2=moderate damage (up to 50%) - obvious damage, restricted to less than half of CA1 field
3=marked damage (up to 75%) - involving greater than half of CA1 field
4=damage extending beyond CA1 field
Results can be reported as the percentage of neuroprotection afforded by a particular dose and dosing regimen.
Sections (7 micron) are evaluated from each brain. Occasionally, asymmetrical damage may be noted and the rating assigned is the average score of the two sides. The average brain damage rating score for each group is recorded, and the damage scores of the drug treated group are compared to the vehicle-treated group using Wilcoxcon-Rank Sum test.

[2] = target: T1, glycine receptor of the NMDA receptor complex (Rattus norvegicus, UniProt P35439); assay: [3H]-glycine binding assay; parameters: species or system Sprague-Dawley rats; details: 20 nM [3H]-glycine, rat neuronal synaptic membranes (cortices and hippocampi), pH 7.1, 30 min, 4° C.
T1 construct: neuronal synaptic membranes are prepared from adult (about 250 g) male Sprague-Dawley rats; from tissue; host or cells: synaptic membranes of cortices and hippocampi of adult male Sprague-Dawley rats
Description: The actions of compounds of formula I as antagonists at the glycine receptor of the NMDA receptor complex can be shown by standard tests such as the [^3 H]-glycine binding assay, by functional assays in vitro such as tests for measuring glutamate evoked contractions of the guinea pig ileum, and by tests in vivo such as ischemia induced by carotid occlusion in the gerbil model.
In the [^3 H]-glycine binding assay, neuronal synaptic membranes are prepared from adult (about 250 g) male Sprague-Dawley rats. Freshly dissected cortices and hippocampi are homogenized in 0.32M sucrose (110 mg/mL). Synaptosomes are isolated by centrifugation (1000 xg, 10 min), the supernatant is pelleted (20,000 xg, 20 min) and resuspended in double-distilled water. The suspension was centrifuged for 20 minutes at 8,000 xg. The resulting supernatant and buffy coat are washed twice (48,000 xg, 10 mins, resuspension in double-deionized water). The final pellet is quickly frozen (dry ice ethanol bath) under double-deionized water and stored at -70 ° C. […]
For [^3 H]-glycine binding at the N-methyl-D-aspartate receptor, 20 nM [^3 H]-glycine (40-60 Ci/mmol, New England Nuclear, Boston, Mass.) is incubated with the membranes suspended in 50 mM tris (hydroxymethyl)aminomethane citrate, pH 7.1 for 30 minutes at 4° C. […] Radioactivity is estimated by liquid scintillation counting. […]

| Compound | neuroprotection (relative to sham-operated control) [1] | pIC50 [2] |
| --- | --- | --- |
| O=c1[nH]c2cc(Cl)ccc2c(=O)cc1NCCc1ccccc1 [Example 6, 8-Chloro-2,5-dioxo-3-phenethylamino-2,5-dihydro-1H-benz[b]azepine] | about 43% |  |
| O=c1[nH]c2cc(Cl)ccc2c(=O)cc1N1CCCC1 [Example 12] | about 62% | ~3.33 |
| O=c1[nH]c2cc(Cl)ccc2c(=O)cc1NC[C@H](O)[C@@H](O)[C@H](O)[C@H](O)CO [Example 19, 8-Chloro-3-(D-glucamino)-2,5-dioxo-2,5-dihydro-1H-benz[b]azepine] | about 80% | ~4.37 |
